PMC8370248, “Key Metabolic Enzymes Involved in Remdesivir Activation in Human Lung Cells” (Antimicrobial Agents and Chemotherapy, 2021)

Target: T1, CES1c (Homo sapiens, UniProt P23141)
T1 construct: purchased Corning Incorporated (Corning, NY); host or cells: baculovirus-infected insect cells (microsomal fraction, Supersomes)
T1 sequence (P23141 18-566 isoform P23141-3 limits assumed): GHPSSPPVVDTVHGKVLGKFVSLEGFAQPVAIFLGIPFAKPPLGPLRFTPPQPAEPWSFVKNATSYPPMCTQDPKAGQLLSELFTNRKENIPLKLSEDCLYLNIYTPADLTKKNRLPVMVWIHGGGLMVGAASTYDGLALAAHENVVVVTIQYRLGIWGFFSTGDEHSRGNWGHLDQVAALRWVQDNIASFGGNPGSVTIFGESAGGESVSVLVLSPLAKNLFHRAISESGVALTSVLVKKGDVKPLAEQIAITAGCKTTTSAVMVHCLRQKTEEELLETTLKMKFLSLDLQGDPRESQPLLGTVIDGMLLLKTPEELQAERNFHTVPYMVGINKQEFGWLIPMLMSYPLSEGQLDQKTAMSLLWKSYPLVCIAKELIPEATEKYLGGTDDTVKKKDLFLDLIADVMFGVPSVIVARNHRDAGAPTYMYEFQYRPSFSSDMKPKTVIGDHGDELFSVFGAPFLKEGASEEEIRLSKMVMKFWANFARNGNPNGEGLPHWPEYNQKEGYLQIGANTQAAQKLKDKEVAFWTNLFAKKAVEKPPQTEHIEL
Assay: CES1c-catalyzed hydrolysis of RDV and control (substrate disappearance, LC-MS)
Assay type: in vitro ADME
Procedure: The catalytic activity of carboxylesterase 1b (CES1b), carboxylesterase 1c (CES1c), CES2, and CatA toward RDV hydrolysis was measured using protein-enriched subcellular fraction (CES isozymes) or recombinant proteins (CatA). The reaction rates were determined by monitoring the disappearance of RDV using a liquid chromatography-mass spectrometry (LC-MS) method.
RDV or positive-control substrates (oseltamivir for CES1 or procaine for CES2) were incubated with individual Supersome preparations (final CES concentration, 1.5 mg/ml) in 0.1 M potassium phosphate buffer (pH 7.4) at 37°C. Substrates were added to a final concentration of 1 μM to initiate the reaction. The final incubation volume was 250 μl. Aliquots were removed after incubation for 0, 10, 30, 60, and 120 min. The reactions were stopped by the addition of the quench solution containing the LC-MS internal standard (IS) (labetalol). Following protein precipitation and centrifugation, 150 μl of supernatant was dried down and reconstituted with 250 μl water. All samples were analyzed by an LC-MS, and the analyte/internal standard peak area ratio (PAR) values were used for quantification. Disappearance of RDV or positive-control compounds was monitored over the incubation time period. Three experiments were conducted with two replicates in each experiment, and data are reported as averages from the three experiments.
In all studies apart from those with CES1 and CatA with enzyme inhibitors, samples (10-μl aliquots) were injected with a Thermo Scientific autosampler. The LC instrumentation consisted of a Thermo Scientific Dionex UltiMate 3000 RS pump, and the LC column was a Waters Acquity UPLC BEH C18 (1.7 μm particle size, 2.1 by 50 mm). Mobile phases A and B were water 99.9% (vol/vol) containing 0.1% (vol/vol) formic acid, and acetonitrile 99.9% (vol/vol) containing 0.1% (vol/vol) formic acid, respectively, pumped at 0.2 ml/minute. Elution was achieved by a series of linear gradients over 2.33 min followed by reequilibration for 2.57 min. The MS instrument was a Thermo Q Exactive Hybrid Quadrupole-Orbitrap operating in positive or negative ionization mode as appropriate. This was calibrated on a weekly basis, and data were processed with GMSU 8.4.66 software by Gubbs Inc. (Alpharetta, GA). Mass tolerance of 5 ppm was used.

Question: For `CCC(CC)COC(=O)[C@H](C)N[P@](=O)(OC[C@H]1O[C@@](C#N)(c2ccc3c(N)ncnn23)[C@H](O)[C@@H]1O)Oc1ccccc1` [RDV, Remdesivir], which half-life at 1 μM (human, CES1c Supersomes (protein-enriched subcellular fraction), 1 μM substrate, CES 1.5 mg/ml, pH 7.4, 37°C, read-out: t1/2, CES1c (converted)) is on record?
Answer: The half-life at 1 μM was 7.7 min.

Question: And the “CES1c hydrolysis rate relative to oseltamivir” value (times faster than positive control oseltamivir)?
Answer: The value was 4 times.
